ChEMBL document CHEMBL5104131, “Pyrimidine-conjugated fluoroquinolones as new potential broad-spectrum antibacterial agents” (Bioorg Med Chem Lett, 2022)
≈ marks a conversion by molar mass, not a printed value.

Columns and labels:
[1] = system: Staphylococcus aureus; assay: Antibacterial activity against methicillin-resistant Staphylococcus aureus N315 assessed as bacterial growth inhibition by serial dilution method; type: functional
[2] = system: Enterococcus faecalis; assay: Antibacterial activity against Enterococcus faecalis assessed as bacterial growth inhibition by serial dilution method; type: functional
[3] = system: Staphylococcus aureus; assay: Antibacterial activity against Staphylococcus aureus assessed as bacterial growth inhibition by serial dilution method; type: functional
[4] = system: Staphylococcus aureus; assay: Antibacterial activity against Staphylococcus aureus ATCC 25923 assessed as bacterial growth inhibition by serial dilution method; type: functional
[5] = system: Staphylococcus aureus; assay: Antibacterial activity against Staphylococcus aureus ATCC 29213 assessed as bacterial growth inhibition by serial dilution method; type: functional
[6] = system: Klebsiella pneumoniae; assay: Antibacterial activity against Klebsiella pneumoniae assessed as bacterial growth inhibition by serial dilution method; type: functional
[7] = system: Pseudomonas aeruginosa; assay: Antibacterial activity against Pseudomonas aeruginosa ATCC 27853 assessed as bacterial growth inhibition by serial dilution method; type: functional
[8] = system: Aspergillus fumigatus; assay: Antifungal activity against Aspergillus fumigatus assessed as inhibition of fungal growth; type: functional
[9] = system: Escherichia coli; assay: Antibacterial activity against Escherichia coli assessed as bacterial growth inhibition by serial dilution method; type: functional
[10] = system: Escherichia coli; assay: Antibacterial activity against Escherichia coli ATCC 25922 assessed as bacterial growth inhibition by serial dilution method; type: functional
[11] = system: Pseudomonas aeruginosa; assay: Antibacterial activity against Pseudomonas aeruginosa assessed as bacterial growth inhibition by serial dilution method; type: functional
[12] = system: Acinetobacter baumannii; assay: Antibacterial activity against Acinetobacter baumannii assessed as bacterial growth inhibition by serial dilution method; type: functional
[13] = Cytotoxicity against human HaCaT cells assessed as cell viability at 12.5 ug/ml by CCK-8 assay relative to control; type: toxicity, cell-based; details: at 12.5 µg/mL, read-out: Activity
[14] = Cytotoxicity against human HaCaT cells assessed as cell viability at 50 ug/ml by CCK-8 assay relative to control; type: toxicity, cell-based; details: at 50 µg/mL, read-out: Activity
[15] = system: Candida tropicalis; assay: Antifungal activity against Candida tropicalis assessed as inhibition of fungal growth; type: functional

Structure (SMILES)	MIC [1] [µg/mL]	MIC [2] [µg/mL]	MIC [3] [µg/mL]	MIC [4] [µg/mL]	MIC [5] [µg/mL]	MIC [6] [µg/mL]	MIC [7] [µg/mL]	MIC [8] [µg/mL]	MIC [9] [µg/mL]	MIC [10] [µg/mL]	MIC [11] [µg/mL]	MIC [12] [µg/mL]	viability at 12.5 ug/ml [13] [%]	viability at 50 ug/ml [14] [%]	MIC [15] [µg/mL]
O=C(O)c1cn(C2CC2)c2cc(N3CCNCC3)c(F)cc2c1=O [CIPROFLOXACIN]	2 (≈ 6.04 µM)	1 (≈ 3.02 µM)	2 (≈ 6.04 µM)	2 (≈ 6.04 µM)	0.5 (≈ 1.51 µM)	2 (≈ 6.04 µM)	1 (≈ 3.02 µM)	–	–	–	–	–	–	–	–
OC(Cn1cncn1)(Cn1cncn1)c1ccc(F)cc1F [FLUCONAZOLE]	–	–	–	–	–	–	–	256 (≈ 836 µM)	–	–	–	–	–	–	–
O=C(O)c1cn(C2CC2)c2cc(N3CCN(c4nccc(C(F)(F)F)n4)CC3)c(F)cc2c1=O	64 (≈ 134 µM)	8 (≈ 16.8 µM)	128 (≈ 268 µM)	128 (≈ 268 µM)	64 (≈ 134 µM)	128 (≈ 268 µM)	128 (≈ 268 µM)	–	128 (≈ 268 µM)	32 (≈ 67 µM)	64 (≈ 134 µM)	> 256	–	–	–
CCc1cnc(N2CCN(c3cc4c(cc3F)c(=O)c(C(=O)O)cn4CC)CC2)nc1	2 (≈ 4.7 µM)	2 (≈ 4.7 µM)	8 (≈ 18.8 µM)	2 (≈ 4.7 µM)	64 (≈ 150 µM)	2 (≈ 4.7 µM)	128 (≈ 301 µM)	–	16 (≈ 37.6 µM)	1 (≈ 2.35 µM)	2 (≈ 4.7 µM)	128 (≈ 301 µM)	–	–	–
CCn1cc(C(=O)O)c(=O)c2cc(F)c(N3CCN(c4ncc(Br)cn4)CC3)cc21	128 (≈ 269 µM)	64 (≈ 134 µM)	8 (≈ 16.8 µM)	64 (≈ 134 µM)	64 (≈ 134 µM)	256 (≈ 537 µM)	64 (≈ 134 µM)	–	64 (≈ 134 µM)	128 (≈ 269 µM)	8 (≈ 16.8 µM)	64 (≈ 134 µM)	–	–	–
O=C(O)c1cn(C2CC2)c2cc(N3CCN(c4ncccn4)CC3)c(F)cc2c1=O	16 (≈ 39.1 µM)	2 (≈ 4.88 µM)	4 (≈ 9.77 µM)	64 (≈ 156 µM)	32 (≈ 78.2 µM)	64 (≈ 156 µM)	32 (≈ 78.2 µM)	1 (≈ 2.44 µM)	8 (≈ 19.5 µM)	1 (≈ 2.44 µM)	8 (≈ 19.5 µM)	> 256	> 90	70	–
CCn1cc(C(=O)O)c(=O)c2cc(F)c(N3CCN(c4ncc(C)cn4)CC3)cc21	8 (≈ 19.4 µM)	2 (≈ 4.86 µM)	4 (≈ 9.72 µM)	64 (≈ 156 µM)	4 (≈ 9.72 µM)	2 (≈ 4.86 µM)	128 (≈ 311 µM)	2 (≈ 4.86 µM)	16 (≈ 38.9 µM)	2 (≈ 4.86 µM)	4 (≈ 9.72 µM)	128 (≈ 311 µM)	–	–	–
CCn1cc(C(=O)O)c(=O)c2cc(F)c(N3CCN(c4ncc(F)cn4)CC3)cc21	64 (≈ 154 µM)	4 (≈ 9.63 µM)	4 (≈ 9.63 µM)	16 (≈ 38.5 µM)	16 (≈ 38.5 µM)	128 (≈ 308 µM)	256 (≈ 616 µM)	–	16 (≈ 38.5 µM)	128 (≈ 308 µM)	32 (≈ 77 µM)	> 256	–	–	–
Cc1ccnc(N2CCN(c3cc4c(cc3F)c(=O)c(C(=O)O)cn4C3CC3)CC2)n1	64 (≈ 151 µM)	64 (≈ 151 µM)	256 (≈ 605 µM)	4 (≈ 9.45 µM)	32 (≈ 75.6 µM)	64 (≈ 151 µM)	64 (≈ 151 µM)	–	64 (≈ 151 µM)	8 (≈ 18.9 µM)	64 (≈ 151 µM)	2 (≈ 4.72 µM)	–	–	–
CCc1cnc(N2CCN(c3cc4c(cc3F)c(=O)c(C(=O)O)cn4C3CC3)CC2)nc1	128 (≈ 293 µM)	64 (≈ 146 µM)	1 (≈ 2.29 µM)	8 (≈ 18.3 µM)	64 (≈ 146 µM)	256 (≈ 585 µM)	64 (≈ 146 µM)	–	8 (≈ 18.3 µM)	4 (≈ 9.14 µM)	4 (≈ 9.14 µM)	64 (≈ 146 µM)	–	–	2 (≈ 4.57 µM)
